Test results: patent US10450305B2, “LKB1-AMPK activators for therapeutic use in polycystic kidney disease” (The University of Kansas, priority 2014, dated 2019)

Columns and labels:
[1] = Tolerability in wild type mice; type: in vivo; settings: mice, 5, 10 and 25 mg/kg i.p., once per day for 4 days
Procedure: (§1) Normal mice were given BIT-11 at 5, 10 or 25 mg/kg body weight by daily intraperitoneal injection for 4 days. BIT-11 was delivered at 20% DMSO and 80% corn oil. Two hours after the last injection, the mice were sacrificed and the kidneys were snap-frozen and stored at −80 degree C., until tissue lysates were prepared. Tissues were homogenized in a lysis buffer containing detergent and protease and phosphatase inhibitors. Proteins were resolved by SDS PAGE and detected by immunoblot using P-AMPK and AMPK antibodies.
(§2) Another study included dosing wild type mice with BIT-11 once per day for 4 days and measured P-AMPK levels in the kidneys two hours after the last dose.

[2] = tested on: AMPK; assay: P-AMPK levels in kidneys of wild type mice after i.p. dosing; type: in vivo, mouse; settings: wild type mice, 5, 10 or 25 mg/kg i.p. once per day for 4 days, two hours after last dose, compared to vehicle
Procedure: as §1, §2

[3] = tested on: ADPKD cell monolayers; assay: cAMP-induced Cl- secretion (short circuit current) across ADPKD cell monolayers; type: cell-based, human; settings: 10 μM for 24 hours, FSK 10 μM, n=10 pairs of monolayers
Procedure: (§3) We designed and synthesized a small molecule LKB1 activator BIT-11 by incorporating an oxadiazole moiety into a unique 3-substituted 2H-chromene derivative. The effects of BIT-11 on phosphorylated AMPK (P-AMPK) and S6 kinase (P-S6K), a downstream target of mTOR, were determined by western blot analysis. To test the drug's effect on Cl^− transport, ADPKD monolayers were incubated in the absence and presence of BIT-11 and then treated with forskolin, a cAMP agonist. Changes in Cl^− transport were measured by short circuit current. For in vitro cyst growth assays, ADPKD cells were seeded within a collagen matrix and treated with EGF and forskolin±BIT-11, and total surface area of cysts per well was calculated from individual cyst diameters.
FIG. 5A-5B show the effect of BIT-11 on cAMP-induced Cl^− secretion by ADPKD cell monolayers. ADPKD cells were grown as polarized monolayers on permeable Snapwell supports. […] ADPKD monolayers were mounted in Ussing chambers and treated with 10 μM benzamil to block the Na^+ current prior to the experiment. FSK (10 μM), a potent cAMP agonist, was added to maximally stimulate anion secretion.

[4] = tested on: human ADPKD cells; assay: Proliferation of human ADPKD cells (automated cell count); type: cell-based; settings: 10 to 1000 nM, 48 h, 0.05% fetal bovine serum
Text: Cells were counted using an automated cell counter.

[5] = tested on: human ADPKD cells; assay: In vitro cyst growth of ADPKD cells within a collagen matrix; type: cell-based; settings: 5 μM forskolin and 5 ng/ml EGF, cysts diameter ≥50 μm
Procedure: as §3
Cells were seeded in PureCol Type I collagen and stimulated to form cysts with 5 μM forskolin (FSK) and 5 ng/ml epidermal growth factor (EGF) for 3 days. […] FIG. 4A includes representative images of individual wells.

[6] = tested on: AMPK; assay: Western blot of phosphorylated AMPK (P-AMPK/AMPK) in ADPKD cells; type: cell-based, human; settings: for phosphorylation of AMPK: 100 nm, 24 h; for rank order of the effect on AMPK phosphorylation: western blot
Procedure: as §3, with “diameters. […] The numbers above blots indicate P-AMPK/AMPK normalized to control. […] ADPKD cells were treated with BIT129, BIT130, and BIT131 (e.g., 100 nm) for 24 h, then cell lysates were prepared. […] The rank order of the effect of the new drugs on AMPK phosphorylation was BIT-131>BIT-130>BIT-129.” for “diameters.”

[7] = tested on: Pkd1 mutant kidneys; assay: Ex vivo cyst formation in Pkd1-/- embryonic kidneys in metanephric organ culture; design: species or system mouse; settings: 10 μM, 100 μM 8-Br-cAMP, E15.5 kidneys, 4 days in culture
Procedure: FIG. 6 includes images that show the effect of BIT-11 on cyst-like tubule expansions in Pkd1 mutant kidneys. Kidneys were harvested from Pkd1 mutant (Pkd1^−/−) mice at embryonic day 15.5 (E15.5) and placed on permeable cell culture inserts. The kidneys were bathed in media containing 100 μM 8-Bromo-adenosine 3′,5′-cyclic monophosphate (cAMP) to stimulate mural epithelial cell proliferation and Cl^−-dependent fluid secretion, key factors in cyst formation. Images of kidneys were captured using a digital camera connected to a dissecting microscope and cystic area was monitored for 4 days. cAMP induced the formation of cyst-like dilations in Pkd1^−/− kidneys that progressively enlarged over 4 days in culture.

[8] = tested on: S6 kinase (S6K); assay: Western blot of phosphorylated S6 kinase (P-S6K/S6K), downstream target of mTOR, in ADPKD cells; type: cell-based, human; settings: 24 hours, control media 0.05% fetal bovine serum
Procedure: as §3, with “diameters. […] The numbers above blots indicate P-AMPK/AMPK normalized to control. […] ADPKD cells were treated with BIT129, BIT130, and BIT131 (e.g., 100 nm) for 24 h, then cell lysates were prepared. […] The rank order of the effect of the new drugs on AMPK phosphorylation was BIT-131>BIT-130>BIT-129.” for “diameters.”

[9] = tested on: ADPKD cell monolayers; settings: found previously, selective CFTR inhibitor; cited from earlier work
[10] = in vivo; cited from earlier work

Compound: O=C(O)c1ccc(-c2noc(C3=Cc4cc(Cl)cc(Cl)c4OC3c3ccccc3)n2)cc1 (stereo not drawn) [BIT-11]
- tolerability [1]: well tolerated
- P-AMPK levels in the kidneys [2]: markedly increased P-AMPK levels in the kidneys
- cAMP-induced Cl- secretion (steady-state short circuit current) [3]: a decrease in cAMP-induced Cl^− secretion
- effect on proliferation of human ADPKD cells [4]: increasingly inhibit proliferation of ADPKD cells
- total cyst surface area (in vitro cyst growth) [5]: can inhibit cyst proliferation
- effect on P-AMPK/AMPK ([6]; ADPKD cells, BIT-11 at 10 nM, 100 nM and 1,000 nM, 24 hours): can promote phosphorylation of AMPK increasingly with increasing amounts
- biological activity compared with AMPK activator Metformin ([6]; comparison with Metformin): much better efficacy
- cyst formation in Pkd1-/- kidneys [7]: nearly eliminated cyst formation
- effect on P-S6K/S6K [8]: can inhibit phosphorylation of S6K increasingly at increasing amounts

Compound: CC1(C)OB(c2ccc(-c3noc(C4=Cc5cc(Cl)cc(Cl)c5OC4c4ccccc4)n3)cc2)OC1(C)C (stereo not drawn) [BIT-129]
- phosphorylation of AMPK ([6]; ADPKD cells): can promote phosphorylation of AMPK
- rank order of the effect on AMPK phosphorylation ([6]; ADPKD cells): BIT-131>BIT-130>BIT-129

Compound: OB(O)c1ccc(-c2noc(C3=Cc4cc(Cl)cc(Cl)c4OC3c3ccccc3)n2)cc1 (stereo not drawn) [BIT-130]
- phosphorylation of AMPK ([6]; ADPKD cells): can promote phosphorylation of AMPK
- rank order of the effect on AMPK phosphorylation ([6]; ADPKD cells): BIT-131>BIT-130>BIT-129

Compound: O=C(O)c1ccc(/C=C2\SC(=S)N(c3cccc(C(F)(F)F)c3)C2=O)cc1 [CFTRinh-172]
- anion current across ADPKD monolayers [9]: completely blocked

Compound: CN(C)C(=N)N=C(N)N [Metformin]
- eliminated by renal excretion [10]: ~80%
